What was measured:
dogs = assay: Definitive toxicity studies in dogs (intravenous, oral gavage); format: in vivo
Protocol: As clinical development of minnelide prodrug was initiated using an intravenous drug product, IND-enabling toxicology studies were conducted in both rats and dogs using the intravenous route of administration. The results of these studies supported first-in-human clinical trials involving intravenous administration of minnelide prodrug to patients with advanced solid tumors. To support the clinical development of a new solid oral dosage form of minnelide prodrug (capsules), exploratory and definitive toxicity studies were conducted with minnelide prodrug in solution via oral gavage in dogs. Taken together, the results of the intravenous and oral toxicity studies conducted with minnelide prodrug indicate that the target organ profile of minnelide prodrug is consistent in both species (rats and dogs) when administered by either route of administration (intravenous or oral).

gastric cancer = settings: alone or in combination, when properly dosed
Text: Gastric cancer is the most prevalent cancer in South Korea […]. […] Herein, we have evaluated efficacy of minnelide prodrug in combination with paclitaxel in a subcutaneous mouse model of gastric cancer and in a human clinical trial.

[1] = system: pancreatic tumor cell lines; assay: Viability of pancreatic tumor cell lines in vitro (activated with alkaline phosphatase); format: cell-based; settings: activated by concurrent incubation with alkaline phosphatase
MKN45, MKN28I-N-87 = assay: Subcutaneous gastric cancer models, daily intraperitoneal minnelide prodrug; format: in vivo; settings: 0.2 mg/kg and 0.4 mg/kg
[2] = system: advanced gastric cancer (AGC); assay: Phase 1 study of minnelide prodrug alone or with paclitaxel in advanced gastric cancer (NCT 05566834): antitumor activity (RECIST v1.1; BOR, ORR, DCR, PFS, OS); format: in vivo, human
Protocol: Target Lesions. All measurable lesions up to a maximum of two lesions per organ and five lesions in total, representative of all involved organs, were identified as target lesions and recorded and measured at baseline. Target lesions were selected on the basis of their size (lesions with the longest diameter) and were representative of all involved organs, as well as their suitability for reproducible repeated measurements. All measurements were recorded using calipers if clinically assessed.
A sum of the diameters (longest for non-nodal lesions, short axis for nodal lesions) for all target lesions were calculated and reported as the baseline sum diameters, which were used as a reference to further characterize any objective tumor regression in the measurable dimension of the disease. If lymph nodes were included in the sum, only the short axis contributed.
Study design. This was an open-label, nonrandomized, phase 1 study conducted at Samsung Medical Center (SMC) in Korea. The study consisted of three regimens: Monotherapy with minnelide prodrug (Regimen A) and Combination therapy (minnelide prodrug plus paclitaxel), which was further divided into Regimen B and C.
Patients. Adult (≥20 years of age) Korean patients with histologically confirmed advanced-unresectable or metastatic gastric or gastro-esophageal junction adenocarcinoma, who had failed initial standard therapy or for whom no standard treatment was available, were eligible to participate in the study, regardless of HER2 status. Study treatment was discontinued if the patient experienced radiological progressive disease (PD) per Response Evaluation Criteria in Solid Tumors version 1.1 (RECIST v1.1) as assessed by the investigator, clinical progression as assessed by the investigator, or developed unacceptable toxicity.
Treatments. In Regimen A, 3-5 patients were treated at escalating doses of minnelide prodrug alone to determine the maximum tolerated dose (MTD). Minnelide prodrug was administered per oral (PO) once daily for 21 days followed by a 7-day rest period, starting at 1 mg, and escalating to 1.25 mg, and 1.5 mg. One cycle was equal to 28 days and minnelide prodrug was given with the patient in a fasting state. In Regimen B, the same dosing scheme was used for minnelide prodrug 0.25 mg PO in combination with paclitaxel intravenously on days 1, 8 and 15 (Q4W), starting at 60 mg/m^2, and escalating to 80 mg/m^2. In Regimen C, patients were treated with paclitaxel 80 mg/m^2 given intravenously on days 1, 8 and 15 (Q4W) in combination with minnelide prodrug PO once daily on days 1 to 5, 8 to 12 and 15 to 19, starting at 0.5 mg, escalating to 0.75 mg, 1.0 mg, and 1.25 mg. Dose-limiting toxicities (DLTs) were assessed during cycle 1. Treatment continued until disease progression, death, unacceptable toxicity, or patient or investigator decision to discontinue.
Outcomes. In this phase 1 study, the primary objective was to determine the maximum tolerated dose (MTD) and the dose limiting toxicities (DLT) of minnelide prodrug when given alone or in combination with paclitaxel and to establish recommended phase 2 dose (RP2D) of single-agent minnelide prodrug and in combination with paclitaxel every 4 weeks. Secondary objectives were to assess any evidence of antitumor activity of minnelide prodrug alone and in combination with paclitaxel by objective radiographic assessment. Antitumor activity was assessed by objective response rate (ORR). Disease control rate (DCR), duration of response (DOR), progression-free survival (PFS) and overall survival (OS) analysis were performed.
Assessment. Adverse events were graded using National Cancer Institute Common Terminology Criteria for Adverse Events (NCI CTCAE), version 4.03. Tumor assessments were performed after cycles 2, 4, 6, and 8, and every 4 cycles thereafter, or as indicated. Response was determined by investigators using RECIST criteria, version 1.1. […]

[3] = cited from earlier work
[4] = Regimen A (PO daily x21 d/28 d), n = 11
[5] = Regimen A, nine patients who completed at least 1 cycle with measurable lesions
[6] = Regimen A, Kaplan-Meier estimate

CC(C)[C@]12O[C@H]1[C@@H]1O[C@]13[C@]1(O[C@H]1C[C@H]1C4=C(CC[C@@]13C)C(=O)OC4)[C@@H]2OCOP(=O)([O-])[O-].[Na+].[Na+] [minnelide prodrug, disodium; [(1S,2S,4S,5S,7S,8R,9R,11S, 13S)-1-methyl-17-oxo-7-propan-2-yl-3,6,10,16-tetraoxaheptacyclo [11.7.0.0^2,4.0^2,9.0^5,7.0^9,11.0^14,18]icos-14 (18)-en-8-yl]oxymethyl phosphate]
histopathology of reproductive tract tissues, males and females (dogs; definitive toxicity studies, dogs): adverse, largely irreversible histopathological effects | histopathology of the gastrointestinal tract (dogs; oral gavage for up to 28 consecutive days): No adverse histopathological effects | toxic effects (gastric cancer): no significant toxic effects | potency in decreasing viability [1]: as potent as triptolide | tumor weights and volumes (MKN45, MKN28I-N-87): markedly decreased tumor weights and volumes | Duration of OS, Range ([2]; Regimen A): 1.6-11.1 months | Duration of PFS, Range ([2]; Regimen A): 0.7-5.4 months | PFS events, n (%) ([2]; Regimen A): 9 n (%) | BOR NE, number of patients [2, 4]: 2 | BOR PD, number of patients [2, 4]: 5 | BOR SD, number of patients [2, 4]: Four | DCR, n (%) [2, 4]: 4 (36.4) n (%) | ORR, n (%) [2, 4]: 0 n (%) | BOR SD, number of patients ([2]; Regimen A (PO daily x21 d/28 d), n = 11, listed as Minnelide prodrug): 4 | BOR PD, share of patients [2, 5]: 55.6% | BOR SD, share of patients [2, 5]: 44.4% | DCR [2, 5]: 44.4% | Duration of OS, Median [2, 6]: 5.3 months | Duration of PFS, Median [2, 6]: 1.6 months | duration of stable disease (one patient) ([2]; single agent, patient had failed four lines of therapy including immunotherapy): 5.4 months | aqueous solubility [3]: greater aqueous solubility
